# What was measured:
# B. thuringiensis = experiment: Test Example 9: concentration of amphotericin B; assay type: cell-based; conditions: NBRC101235
# C. albicans = experiment: Test Example 9: concentration of amphotericin B
compound,measurement,setting,value
C[C@@H]1[C@H](O)[C@@H](C)/C=C/C=C/C=C/C=C/C=C/C=C/C=C/[C@H](O[C@@H]2O[C@H](C)[C@@H](O)[C@H](N)[C@@H]2O)C[C@@H]2O[C@](O)(C[C@@H](O)C[C@@H](O)[C@H](O)CC[C@@H](O)C[C@@H](O)CC(=O)O[C@H]1C)C[C@H](O)[C@H]2C(=O)O [Amphotericin B],Number of colonies,"B. thuringiensis; Amphotericin B 0.1 mg, 24 hours, 10^2 cfu/mL",28
same,Number of colonies,"B. thuringiensis; Amphotericin B 0.1 mg, 24 hours, 10^3 cfu/mL",+
same,Number of colonies,"B. thuringiensis; Amphotericin B 0.1 mg, 24 hours, 10^4 cfu/mL",+
same,Number of colonies,"B. thuringiensis; Amphotericin B 0.1 mg, 24 hours, 10^5 cfu/mL",+
same,Number of colonies,"B. thuringiensis; Amphotericin B 0.1 mg, 44 hours, 10^2 cfu/mL",28
same,Number of colonies,"B. thuringiensis; Amphotericin B 0.1 mg, 44 hours, 10^3 cfu/mL",+
same,Number of colonies,"B. thuringiensis; Amphotericin B 0.1 mg, 44 hours, 10^4 cfu/mL",+
same,Number of colonies,"B. thuringiensis; Amphotericin B 0.1 mg, 44 hours, 10^5 cfu/mL",+
same,Number of colonies,"B. thuringiensis; Amphotericin B 1.0 mg, 24 hours, 10^2 cfu/mL",39
same,Number of colonies,"B. thuringiensis; Amphotericin B 1.0 mg, 24 hours, 10^3 cfu/mL",+
same,Number of colonies,"B. thuringiensis; Amphotericin B 1.0 mg, 24 hours, 10^4 cfu/mL",+
same,Number of colonies,"B. thuringiensis; Amphotericin B 1.0 mg, 24 hours, 10^5 cfu/mL",+
same,Number of colonies,"B. thuringiensis; Amphotericin B 1.0 mg, 44 hours, 10^2 cfu/mL",39
same,Number of colonies,"B. thuringiensis; Amphotericin B 1.0 mg, 44 hours, 10^3 cfu/mL",+
same,Number of colonies,"B. thuringiensis; Amphotericin B 1.0 mg, 44 hours, 10^4 cfu/mL",+
same,Number of colonies,"B. thuringiensis; Amphotericin B 1.0 mg, 44 hours, 10^5 cfu/mL",+
same,Number of colonies,"B. thuringiensis; Amphotericin B 10 mg, 24 hours, 10^2 cfu/mL",38
same,Number of colonies,"B. thuringiensis; Amphotericin B 10 mg, 24 hours, 10^3 cfu/mL",+
same,Number of colonies,"B. thuringiensis; Amphotericin B 10 mg, 24 hours, 10^4 cfu/mL",+
same,Number of colonies,"B. thuringiensis; Amphotericin B 10 mg, 24 hours, 10^5 cfu/mL",+
same,Number of colonies,"B. thuringiensis; Amphotericin B 10 mg, 44 hours, 10^2 cfu/mL",38
same,Number of colonies,"B. thuringiensis; Amphotericin B 10 mg, 44 hours, 10^3 cfu/mL",+
same,Number of colonies,"B. thuringiensis; Amphotericin B 10 mg, 44 hours, 10^4 cfu/mL",+
same,Number of colonies,"B. thuringiensis; Amphotericin B 10 mg, 44 hours, 10^5 cfu/mL",+
same,Number of colonies,"C. albicans; ATCC10231, Amphotericin B 0.1 mg, 24 hours, 10^2 cfu/mL",−
same,Number of colonies,"C. albicans; ATCC10231, Amphotericin B 0.1 mg, 24 hours, 10^3 cfu/mL",−
same,Number of colonies,"C. albicans; ATCC10231, Amphotericin B 0.1 mg, 24 hours, 10^4 cfu/mL",−
same,Number of colonies,"C. albicans; ATCC10231, Amphotericin B 0.1 mg, 24 hours, 10^5 cfu/mL",−
same,Number of colonies,"C. albicans; ATCC10231, Amphotericin B 0.1 mg, 44 hours, 10^2 cfu/mL",−
same,Number of colonies,"C. albicans; ATCC10231, Amphotericin B 0.1 mg, 44 hours, 10^3 cfu/mL",−
same,Number of colonies,"C. albicans; ATCC10231, Amphotericin B 0.1 mg, 44 hours, 10^4 cfu/mL",−
same,Number of colonies,"C. albicans; ATCC10231, Amphotericin B 1.0 mg, 24 hours, 10^2 cfu/mL",−
same,Number of colonies,"C. albicans; ATCC10231, Amphotericin B 1.0 mg, 24 hours, 10^3 cfu/mL",−
same,Number of colonies,"C. albicans; ATCC10231, Amphotericin B 1.0 mg, 24 hours, 10^4 cfu/mL",−
same,Number of colonies,"C. albicans; ATCC10231, Amphotericin B 1.0 mg, 24 hours, 10^5 cfu/mL",−
same,Number of colonies,"C. albicans; ATCC10231, Amphotericin B 1.0 mg, 44 hours, 10^2 cfu/mL",−
same,Number of colonies,"C. albicans; ATCC10231, Amphotericin B 1.0 mg, 44 hours, 10^3 cfu/mL",−
same,Number of colonies,"C. albicans; ATCC10231, Amphotericin B 1.0 mg, 44 hours, 10^4 cfu/mL",−
same,Number of colonies,"C. albicans; ATCC10231, Amphotericin B 1.0 mg, 44 hours, 10^5 cfu/mL",−
same,Number of colonies,"C. albicans; ATCC10231, Amphotericin B 10 mg, 24 hours, 10^2 cfu/mL",−
same,Number of colonies,"C. albicans; ATCC10231, Amphotericin B 10 mg, 24 hours, 10^3 cfu/mL",−
same,Number of colonies,"C. albicans; ATCC10231, Amphotericin B 10 mg, 24 hours, 10^4 cfu/mL",−
same,Number of colonies,"C. albicans; ATCC10231, Amphotericin B 10 mg, 24 hours, 10^5 cfu/mL",−
same,Number of colonies,"C. albicans; ATCC10231, Amphotericin B 10 mg, 44 hours, 10^2 cfu/mL",−
same,Number of colonies,"C. albicans; ATCC10231, Amphotericin B 10 mg, 44 hours, 10^3 cfu/mL",−
same,Number of colonies,"C. albicans; ATCC10231, Amphotericin B 10 mg, 44 hours, 10^4 cfu/mL",−
same,Number of colonies,"C. albicans; ATCC10231, Amphotericin B 10 mg, 44 hours, 10^5 cfu/mL",−
same,Number of colonies,"C. albicans; ATCC14053, Amphotericin B 0.1 mg, 24 hours, 10^2 cfu/mL",−
same,Number of colonies,"C. albicans; ATCC14053, Amphotericin B 0.1 mg, 24 hours, 10^3 cfu/mL",−
same,Number of colonies,"C. albicans; ATCC14053, Amphotericin B 0.1 mg, 24 hours, 10^4 cfu/mL",−
same,Number of colonies,"C. albicans; ATCC14053, Amphotericin B 0.1 mg, 24 hours, 10^5 cfu/mL",−
same,Number of colonies,"C. albicans; ATCC14053, Amphotericin B 0.1 mg, 44 hours, 10^2 cfu/mL",−
same,Number of colonies,"C. albicans; ATCC14053, Amphotericin B 0.1 mg, 44 hours, 10^3 cfu/mL",−
same,Number of colonies,"C. albicans; ATCC14053, Amphotericin B 0.1 mg, 44 hours, 10^4 cfu/mL",−
same,Number of colonies,"C. albicans; ATCC14053, Amphotericin B 1.0 mg, 24 hours, 10^2 cfu/mL",−
same,Number of colonies,"C. albicans; ATCC14053, Amphotericin B 1.0 mg, 24 hours, 10^3 cfu/mL",−
same,Number of colonies,"C. albicans; ATCC14053, Amphotericin B 1.0 mg, 24 hours, 10^4 cfu/mL",−
same,Number of colonies,"C. albicans; ATCC14053, Amphotericin B 1.0 mg, 24 hours, 10^5 cfu/mL",−
same,Number of colonies,"C. albicans; ATCC14053, Amphotericin B 1.0 mg, 44 hours, 10^2 cfu/mL",−
same,Number of colonies,"C. albicans; ATCC14053, Amphotericin B 1.0 mg, 44 hours, 10^3 cfu/mL",−
same,Number of colonies,"C. albicans; ATCC14053, Amphotericin B 1.0 mg, 44 hours, 10^4 cfu/mL",−
same,Number of colonies,"C. albicans; ATCC14053, Amphotericin B 1.0 mg, 44 hours, 10^5 cfu/mL",−
same,Number of colonies,"C. albicans; ATCC14053, Amphotericin B 10 mg, 24 hours, 10^2 cfu/mL",−
same,Number of colonies,"C. albicans; ATCC14053, Amphotericin B 10 mg, 24 hours, 10^3 cfu/mL",−
same,Number of colonies,"C. albicans; ATCC14053, Amphotericin B 10 mg, 24 hours, 10^4 cfu/mL",−
same,Number of colonies,"C. albicans; ATCC14053, Amphotericin B 10 mg, 24 hours, 10^5 cfu/mL",−
same,Number of colonies,"C. albicans; ATCC14053, Amphotericin B 10 mg, 44 hours, 10^2 cfu/mL",−
same,Number of colonies,"C. albicans; ATCC14053, Amphotericin B 10 mg, 44 hours, 10^3 cfu/mL",−
same,Number of colonies,"C. albicans; ATCC14053, Amphotericin B 10 mg, 44 hours, 10^4 cfu/mL",−
same,Number of colonies,"C. albicans; ATCC14053, Amphotericin B 10 mg, 44 hours, 10^5 cfu/mL",−

# From US12618095B2, “Medium for Bacillus cereus group detection” (SHIMADZU DIAGNOSTICS CORPORATION, priority 2020, dated 2026)
